Measured values as given in patent publication US20240317736A1, “DEUTERATED DERIVATIVE AS ATX INHIBITOR, AND APPLICATION THEREOF” (Xizang Haisco Pharmaceutical Co., Ltd., priority 2020, published 2024).
In brackets after ≈: the same amount, converted by molar mass. Where two headings read alike, the source gives them in different places. Blank lines part the entries; values can stand above or below the molecule they belong to.

Columns and labels:
[1] = phase II clinical trial; cited from earlier work
[2] = Dynamic solubility test in water and biological vehicles; format: physicochemical; details: 37° C.; for solubility at 1 h / solubility at 2 h / solubility at 4 h / solubility at 24 h: read-out: S: Solubility; for pH: filtrate; for S: Solubility: LOQ: 0.03 μg/mL
Method: The dynamic solubility of the crystal form I of compound A (example 11) in water and three biological vehicles was evaluated. […] The samples at each time point were centrifuged (12000 rpm, 5 min) and filtered (0.45 μm PTFE filter), and the HPLC concentration and pH value of the filtrates were measured.
Preparation of simulated gastric fluid (SGF): 0.1 g of NaCl and 0.05 g of Triton X-100 were weighted to a 50 mL volumetric flask, and purified water was added to obtain a clear solution. 67.5 μL of concentrated hydrochloric acid (12 M) was added, and the pH was adjusted to 1.8 with 1 M hydrochloric acid or a 1 M NaOH solution. Purified water was added to a constant volume.
Preparation of simulated intestinal fluid (FaSSIF) in a fasted state: 0.17 g of anhydrous NaH2PO4, 0.021 g of NaOH and 0.31 g of NaCl were weighed to a 50 mL volumetric flask. About 48 mL of purified water was added to obtain a clear solution, and the pH was adjusted to 6.5 with 1 M hydrochloric acid or a 1 M NaOH solution. Purified water was added to a constant volume, and 0.11 g of SIF powder was weighed to obtain a clear solution.
Preparation of simulated intestinal fluid (FeSSIF) in a feeding state: 0.41 mL of glacial acetic acid, 0.20 g of NaOH and 0.59 g of NaCl were weighed to a 50 mL volumetric flask. About 48 mL of purified water was added to obtain a clear solution, and the pH was adjusted to 5.0 with 1 M hydrochloric acid or a 1 M NaOH solution. Purified water was added to a constant volume, and 0.56 g of SIF powder was weighed to obtain a clear solution.

[3] = Stability test of crystal form (purity and crystal form change on storage); format: physicochemical; details: for Crystal form change / Purity: 12 days
Method: The crystal form I (example 11) was placed at 25° C./60% RH and 40° C./75% RH for 12 days; and then the sample purity was detected, and the crystal form change was observed.

[4] = Dynamic vapor sorption (DVS); format: physicochemical; details: 25° C./80% RH
Method: A dynamic vapor sorption (DVS) curve is obtained on DVS Intrinsic of Surface Measurement Systems (SMS). The relative humidity at 25° C. is corrected by using the deliquescence points of LiCl, Mg(NO3)2 and KCl.
A free base (9.1 g, 15.3 mmol) of 2-((2-ethyl-6-fluoro-5-(4-(2-(3-hydroxyazetidin-1-yl)-2-oxoethyl)piperazin-1-yl)pyrazolo[1,5-a]pyridin-3-yl)(methyl-d3)amino)-4-(4-fluorophenyl)thiazole-5-carbonitrile (compound A, i.e., compound 3) prepared in example 3 was added to ethanol (50 mL), warmed to 75° C., stirred for 2 h and then dissolved. The mixture was gradually cooled to room temperature under slow stirring, with a large amount of white solids precipitated out, and filtered by suction. The filter cake was washed with ethanol (10 mL), and then dried under vacuum at 40° C. for 24 h to obtain a crystal form I of compound A as a white solid (6.2 g, yield: 68%). […] (initial temperature).

Compound: CCc1nc2c(C)cc(N3CCN(CC(=O)N4CC(O)C4)CC3)cn2c1N(C)c1nc(-c2ccc(F)cc2)c(C#N)s1 [GLPG-1690]
Curative effect in IPF [1]: good curative effect

solubility at 1 h ([2]; fasted-state simulated intestinal fluid (FaSSIF), pH 6.5, thermodynamic from solid, vehicle FaSSIF, 1 h): 320 µg/mL (≈ 537 µM) | solubility at 2 h ([2]; fasted-state simulated intestinal fluid (FaSSIF), pH 6.5, thermodynamic from solid, vehicle FaSSIF, 2 h): 270 µg/mL (≈ 453 µM) | solubility at 4 h ([2]; fasted-state simulated intestinal fluid (FaSSIF), pH 6.5, thermodynamic from solid, vehicle FaSSIF, 4 h): 360 µg/mL (≈ 604 µM) | solubility at 24 h ([2]; fasted-state simulated intestinal fluid (FaSSIF), pH 6.5, thermodynamic from solid, vehicle FaSSIF, 24 h): 210 µg/mL (≈ 353 µM) | pH ([2]; vehicle FaSSIF, 1 h): 4.9 | pH ([2]; vehicle FaSSIF, 2 h): 5.0 | pH ([2]; vehicle FaSSIF, 4 h): 4.9 | pH ([2]; vehicle FaSSIF, 24 h): 4.9 | pH ([2]; vehicle FeSSIF, 1 h): 8.5 | pH ([2]; vehicle FeSSIF, 2 h): 8.5 | pH ([2]; vehicle FeSSIF, 4 h): 8.5 | pH ([2]; vehicle FeSSIF, 24 h): 8.5 | pH ([2]; vehicle H2O, 1 h): 2.0 | pH ([2]; vehicle H2O, 2 h): 2.2 | pH ([2]; vehicle H2O, 4 h): 2.0 | pH ([2]; vehicle H2O, 24 h): 2.1 | pH ([2]; vehicle SGF, 1 h): 6.4 | pH ([2]; vehicle SGF, 2 h): 6.5 | pH ([2]; vehicle SGF, 4 h): 6.4 | pH ([2]; vehicle SGF, 24 h): 6.4 | solubility at 1 h ([2]; simulated gastric fluid (SGF), pH 1.8, simulated gastric fluid, thermodynamic from solid, vehicle SGF, 1 h): 15 µg/mL (≈ 25.2 µM) | solubility at 2 h ([2]; simulated gastric fluid (SGF), pH 1.8, simulated gastric fluid, thermodynamic from solid, vehicle SGF, 2 h): 15 µg/mL (≈ 25.2 µM) | solubility at 4 h ([2]; simulated gastric fluid (SGF), pH 1.8, simulated gastric fluid, thermodynamic from solid, vehicle SGF, 4 h): 14 µg/mL (≈ 23.5 µM) | solubility at 24 h ([2]; simulated gastric fluid (SGF), pH 1.8, simulated gastric fluid, thermodynamic from solid, vehicle SGF, 24 h): 14 µg/mL (≈ 23.5 µM) | S: Solubility ([2]; vehicle FeSSIF, 1 h): <LOQ | S: Solubility ([2]; vehicle FeSSIF, 2 h): <LOQ | S: Solubility ([2]; vehicle FeSSIF, 4 h): <LOQ | S: Solubility ([2]; vehicle FeSSIF, 24 h): <LOQ | solubility at 1 h ([2]; water, thermodynamic from solid, vehicle H2O, 1 h): > 5100 µg/mL | solubility at 2 h ([2]; water, thermodynamic from solid, vehicle H2O, 2 h): > 5200 µg/mL | solubility at 4 h ([2]; water, thermodynamic from solid, vehicle H2O, 4 h): > 5300 µg/mL | solubility at 24 h ([2]; water, thermodynamic from solid, vehicle H2O, 24 h): > 5300 µg/mL | Crystal form change ([3]; 25° C./60% RH): No | Purity ([3]; 25° C./60% RH): 99.41 area % | Crystal form change ([3]; 40° C./75% RH): No | Purity ([3]; 40° C./75% RH): 99.44 area % | Initial purity ([3]; before storage): 99.76 area % | water adsorption [4]: 0.20%
Compound: [2H]C([2H])([2H])N(c1nc(-c2ccc(F)cc2)c(C#N)s1)c1c(CC)nn2cc(F)c(N3CCN(CC(=O)N4CC(O)C4)CC3)cc12 [Compound A Crystal form I, 2-((2-ethyl-6-fluoro-5-(4-(2-(3-hydroxyazetidin-1-yl)-2-oxoethyl)piperazin-1-yl)pyrazolo[1,5-a]pyridin-3-yl)(methyl-d3)amino)-4-(4-fluorophenyl)thiazole-5-carbonitrile]
